The source of these data is patent US20100130522A1, “COMPOUNDS FOR INFLAMMATION AND IMMUNE-RELATED USES” (Synta Pharmaceuticals Corp., priority 2008, published 2010).

Counter-ions that a name gives are not always drawn.

The test system of assay [1] is IL-2 production, Jurkat cells. As to the kind of experiment: Inhibition of IL-2 production in PHA-activated Jurkat cells (ELISA). Type of assay: cell-based. Particulars: Homo sapiens, 1% FBS. Here is the method: Jurkat cells were placed in a 96 well plate (0.5 million cells per well in 1% FBS medium), and then a test compound of this invention was added at different concentrations. After 10 minutes, the cells were activated with PHA (final concentration 2.5 μg/mL) and incubated for 20 hours at 37° C. under 5% CO2. The final volume was 200 μL. Following incubation, the cells were centrifuged, and the supernatants collected and stored at −70° C. prior to assaying for IL-2 production. A commercial ELISA kit (IL-2 Eli-pair, Diaclone Research, Besancon, France) was used to detect production of IL-2, from which dose response curves were obtained. The IC50 value was calculated as the concentration at which 50% of maximum IL-2 production after stimulation was inhibited versus a non-stimulation control.
Background: In an ELISA, binding on a coated surface is turned into a signal by an enzyme label.

In the next assay the target is T1, CRACM1/STIM1-CHOK1 (Homo sapiens, UniProt Q96D31).
T1 construct: Full length human Stim1, CracM1, CracM2 and CracM3 cDNA; Stim1 induced with doxycycline
Briefly: Patch clamp inhibition of ICRAC current in CRACM1/STIM1-CHOK1 cells. It is filed as cell-based. The conditions noted are these: 500 nM; given as activity class. The procedure:
Manual patch clamp experiments are conducted in the tight-seal whole-cell configuration at room temperature (21-25° C.). Patch pipettes are fashioned from borosilicate glass capillary tubes and have resistances between 2-4 MΩ after filling with standard intracellular solution. High resolution current recordings are acquired with a computer-based patch clamp amplifier system (EPC-10, HEKA, Lambrecht, Germany). All voltages are corrected for a liquid junction potential of 10 mV between external and internal solutions with glutamate as the intracellular anion. Currents are filtered at 2.9 kHz and digitized at 10 μs intervals. Capacitive currents and series resistance are determined and corrected before each voltage ramp using the automatic capacitance compensation of the EPC-10.
Automated patch clamp experiments are conducted with the QPatch 16 (Sophion Bioscience, Ballerup, Denmark) at room temperature (21-25° C.). Immediately following the establishment of giga-seal whole-cell configuration, the cells membrane potential is clamped at 0 mV. Voltage ramps of 50 ms duration spanning the voltage range of −100 to +100 mV are then stimulated at a rate of 0.33 Hz. Currents are filtered at 2.9 kHz and digitized at 200 μs intervals. Capacitive currents and series resistance are determined and corrected before each voltage ramp using the automatic capacitance compensation.
In general, a whole cell patch clamp method is used to examine the effects of a compound of the invention on a channel(s) that mediates ICRAC. In such experiments, a baseline ICRAC measurement is established within the first 70 voltage ramps, or 140 seconds, for a patched cell. Then the cells are perfused with the compound to be tested and the effect of the compound on ICRAC is measured for at least an additional 440 to 500 seconds. A compound that modulates ICRAC (e.g., inhibits) is a compound that is useful in the invention for modulating CRAG ion channel activity.
Off-line analysis with the Heka PatchMaster software is used to separate the ICRAC membrane current from the cells basal background currents. In a typical recording, InsP3 stimulated ICRAC currents begin to develop in 6 to 12 seconds after whole cell is established. Therefore, the first 1-4 voltage ramps represent the basal membrane currents in the absence of ICRAC and the average value is subtracted from all subsequent traces. The current value at −80 mV for each ramp trace is then measured and plotted against time. The resulting current versus time data is exported into a Microsoft Excel spreadsheet. The % ICRAC inhibition in each cell is calculated by comparing the amount of current just prior to the compound perfusion to the amount of current after the cells has been perfused with the compound for 440-500 seconds. The IC50 value and Hill coefficient for each compound is estimated by fitting all the individual data points to a single-site Hill equation.
TREx™-CHO cells were transfected with human Stim1 (recombinant DNA in pcDNA4/TO/myc-His™ A with a myc epitope tag in the N-terminal) and either CracM1, CracM2 or CracM3 (recombinant DNA in pcDNA 3.1 with a HA epitope tag in the N-terminal). Stably expressing cells were selected by growing the transfected cells in antibiotics for two to three weeks. Individual cell clones were isolated via serial dilution. Full length human Stim1, CracM1, CracM2 and CracM3 cDNA, TREx™-CHO cells, pcDNA4/TO/myc-His™ A and pcDNA 3.1 were purchased from Invitrogen (Carlsbad, Calif.). All cells clones are grown in Ham's F-12 media supplemented with 10% fetal bovine serum, penicillin 100 U/ml, streptomycin 100 ? g/ml, Zeocin™ (200 ? g/ml), Geneticin (500 ? g/ml) and blasticidin (10 ? g/ml) in an atmosphere of 95% air/5% CO2. Stim1 expression was induced with doxycycline (1 ? g/ml) for 16-20 hrs. […]
In general terms: In patch-clamp work, channel activity is measured electrically.

T1 sequence (Q96D31 whole entry): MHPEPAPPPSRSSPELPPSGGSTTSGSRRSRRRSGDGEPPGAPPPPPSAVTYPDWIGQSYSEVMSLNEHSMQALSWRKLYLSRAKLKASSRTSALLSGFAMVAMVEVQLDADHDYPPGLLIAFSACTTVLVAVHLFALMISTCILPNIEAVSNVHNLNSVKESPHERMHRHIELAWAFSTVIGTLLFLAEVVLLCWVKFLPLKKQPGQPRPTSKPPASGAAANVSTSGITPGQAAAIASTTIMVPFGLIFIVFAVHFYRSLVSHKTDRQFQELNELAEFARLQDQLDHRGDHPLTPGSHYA

For orientation: IC50 means the concentration that inhibits the measured activity by half. Higher therefore signals weaker potency in that assay. Usually inhibition stands for the percentage by which the read-out fell short of the control. Lower therefore signals little suppression. With `O=C(Nc1ccc(-c2cc(Oc3ccccn3)ccc2Cl)cn1)c1c(F)cccc1F` [Compound 5, N-(5-(2-chloro-5-(pyridin-2-yloxy)phenyl)pyridin-2-yl)-2,6-difluorobenzamide], in assay [1] (given as activity class), the IC50 is less than 50 nM. Besides, the inhibition at 0.5 µM at CRACM1/STIM1-CHOK1 is 70 to 100%.

With `Cc1ccc(Oc2ccccn2)cc1-c1ccc(NC(=O)c2cccc(F)c2C)nc1` [Compound 33, 3-fluoro-2-methyl-N-(5-(2-methyl-5-(pyridin-2-yloxy)phenyl)pyridin-2-yl)benzamide], the IC50 in assay [1] (numeric values) stood at 90 nM.

Compound `Cc1ccc(Oc2ccccn2)cc1-c1ccc(NC(=O)c2c(F)cccc2F)nc1` [Compound 9, 2,6-difluoro-N-(5-(2-methyl-5-(pyridin-2-yloxy)phenyl)-pyridin-2-yl)benzamide] had an IC50 in assay [1] (given as activity class) of less than 50 nM. Besides, the inhibition at 0.5 µM on CRACM1/STIM1-CHOK1 lay within 70 to 100%.

Turning to `Cn1cncc1-c1cnc(-c2ccc(Cl)c(-c3ccc(NC(=O)c4c(F)cccc4F)nc3)c2)s1` [Compound 18, N-(5-(2-chloro-5-(5-(1-methyl-1H-imidazol-5-yl)thiazol-2-yl)phenyl)pyridin-2-yl)-2,6-difluorobenzamide], the IC50 in assay [1] (given as activity class) is 50 to 100 nM. The inhibition at 0.5 µM against CRACM1/STIM1-CHOK1 was in the range of 50 to 70%.

On to `Cc1ccc(OCc2ccccn2)cc1-c1ccc(NC(=O)c2c(F)cccc2F)cc1` [Compound 13, 2,6-difluoro-N-(2′-methyl-5′-(pyridin-2-ylmethoxy)-biphenyl-4-yl)benzamide], for which the IC50 in assay [1] (given as activity class) is less than 50 nM. The compound also registered an inhibition at 0.5 µM at CRACM1/STIM1-CHOK1 of 70 to 100%.

Regarding `Cc1ccc(-c2ncc(-c3cnco3)s2)cc1-c1ccc(NC(=O)c2c(F)cccc2F)cc1` [Compound 21, 2,6-difluoro-N-(2′-methyl-5′-(5-(oxazol-5-yl)thiazol-2-yl)biphenyl-4-yl)benzamide], the IC50 in assay [1] (given as activity class) was 50 to 100 nM. The inhibition at 0.5 µM against CRACM1/STIM1-CHOK1 is less than 50%.

For the compound `COc1ccc(Oc2ccccn2)cc1-c1cnc(NC(=O)c2c(F)cccc2F)cn1` [Compound 39, 2,6-difluoro-N-(5-(2-methoxy-5-(pyridin-2-yloxy)phenyl)pyrazin-2-yl)benzamide], inhibition in assay [1] (numeric values) was half-maximal at 25 nM (IC50).

`Cc1ccc(Oc2ccccn2)cc1-c1ccc(NC(=O)c2ccncc2F)nc1` [Compound 35, 3-fluoro-N-(5-(2-methyl-5-(pyridin-2-yloxy)phenyl)pyridin-2-yl)isonicotinamide] returned an IC50 in assay [1] (numeric values) of 16 nM.

In the case of `Cc1c(F)cccc1C(=O)Nc1ccc(-c2cc(Oc3cccnc3)ccc2C(F)(F)F)cn1` [Compound 41, 3-fluoro-2-methyl-N-(5-(5-(pyridin-3-yloxy)-2-(trifluoromethyl)phenyl)pyridin-2-yl)benzamide], the IC50 in assay [1] (numeric values) is 47 nM.

For the compound `Cc1cc(Oc2cccnc2)ncc1-c1ccc(NC(=O)c2cccc(F)c2C)nc1` [Compound 34, 3-fluoro-2-methyl-N-(4′-methyl-6′-(pyridin-3-yloxy)-3,3′-bipyridin-6-yl)benzamide], the IC50 in assay [1] (numeric values) is 14 nM.

The compound `Cc1ccc(Oc2cccnc2)cc1-c1ccc(NC(=O)c2c(F)cccc2F)cc1` [Compound 6, 2,6-difluoro-N-(2′-methyl-5′-(pyridin-3-yloxy)biphenyl-4-yl)benzamide] displayed an IC50 in assay [1] (given as activity class) of less than 50 nM. For the same compound, the inhibition at 0.5 µM against CRACM1/STIM1-CHOK1 fell in the range of 70 to 100%.

Compound `O=C(Nc1cnc(-c2cc(Oc3ccccn3)ccc2Cl)cn1)c1c(F)cccc1F` [Compound 36, N-(5-(2-chloro-5-(pyridin-2-yloxy)phenyl)pyrazin-2-yl)-2,6-difluorobenzamide] yielded an IC50 in assay [1] (numeric values) of 16 nM.

In assay [1] (given as activity class), `COc1ccc(-c2ccc(C)c(-c3ccc(NC(=O)c4c(F)cccc4F)cc3)c2)cn1` [Compound 22, 2,6-difluoro-N-(5′-(6-methoxypyridin-3-yl)-2′-methylbiphenyl-4-yl)benzamide] gave an IC50 of less than 50 nM. The inhibition at 0.5 µM at CRACM1/STIM1-CHOK1 lay within 70 to 100%.

Compound `O=C(Nc1ccc(-c2cc(Oc3ccccn3)ccc2Cl)cc1)c1c(F)cccc1F` [Compound 4, N-(2′-chloro-5′-(pyridin-2-yloxy)biphenyl-4-yl)-2,6-difluorobenzamide] displayed an IC50 in assay [1] (given as activity class) of less than 50 nM. In addition, the inhibition at 0.5 µM against CRACM1/STIM1-CHOK1 fell in the range of 70 to 100%.

Turning to `Cc1ccc(C#Cc2cccnc2)cc1-c1ccc(NC(=O)c2c(F)cccc2F)cc1` [Compound 2, 2,6-difluoro-N-(2′-methyl-5′-(pyridin-3-ylethynyl)biphenyl-4-yl)benzamide], the IC50 in assay [1] (given as activity class) was less than 50 nM. This compound showed an inhibition at 0.5 µM at CRACM1/STIM1-CHOK1 of 70 to 100%.

For `Cc1ccc(Cn2ccnc2)cc1-c1ccc(NC(=O)c2c(F)cccc2F)cc1` [Compound 14, N-(5′-((1H-imidazol-1-yl)methyl)-2′-methylbiphenyl-4-yl)-2,6-difluorobenzamide], the half-inhibitory concentration (IC50) in assay [1] (given as activity class) is less than 50 nM. The compound also gave an inhibition at 0.5 µM against CRACM1/STIM1-CHOK1 of 70 to 100%.

In turn, `COc1ccc(Oc2ccccn2)cc1-c1ccc(NC(=O)c2cccc(F)c2C)nc1` [Compound 38, 3-fluoro-N-(5-(2-methoxy-5-(pyridin-2-yloxy)phenyl)pyridin-2-yl)-2-methylbenzamide] had an IC50 in assay [1] (numeric values) of 21 nM.

As to `Cc1ccc(-c2nc(-c3cccnc3)cs2)cc1-c1ccc(NC(=O)c2c(F)cccc2F)cc1` [Compound 19, 2,6-difluoro-N-(2′-methyl-5′-(4-(pyridin-3-yl)thiazol-2-yl)biphenyl-4-yl)benzamide hydrochloride], in assay [1] (given as activity class), the IC50 was less than 50 nM. For the same compound, at CRACM1/STIM1-CHOK1, the inhibition at 0.5 µM is less than 50%.

Take `O=C(Nc1ccc(-c2cc(Oc3nccs3)ccc2Cl)cc1)c1c(F)cccc1F` [Compound 11, N-(2′-chloro-5′-(thiazol-2-yloxy)biphenyl-4-yl)-2,6-difluorobenzamide]: in assay [1] (given as activity class), the IC50 is less than 50 nM. In addition, the inhibition at 0.5 µM at CRACM1/STIM1-CHOK1 was 70 to 100%.

In assay [1] (given as activity class), `Cc1ccc(C#Cc2cccnc2)cc1-c1cnc(NC(=O)c2c(F)cccc2F)cn1` [Compound 1, 2,6-difluoro-N-(5-(2-methyl-5-(pyridin-3-ylethynyl)phenyl)-pyrazin-2-yl)benzamide] registered an IC50 of less than 50 nM. For the same compound, at CRACM1/STIM1-CHOK1, the inhibition at 0.5 µM was in the range of 70 to 100%.

On to `Cc1ccc(CCc2ccccn2)cc1-c1ccc(NC(=O)c2c(F)cccc2F)cc1` [Compound 17, 2,6-difluoro-N-(2′-methyl-5′-(2-(pyridin-2-yl)ethyl)biphenyl-4-yl)benzamide], for which, in assay [1] (given as activity class), the IC50 was in the range of 50 to 100 nM. Moreover, the inhibition at 0.5 µM on CRACM1/STIM1-CHOK1 was 70 to 100%.

The compound `O=C(Nc1ccc(-c2cc(Oc3nccs3)ccc2Cl)cn1)c1c(F)cccc1F` [Compound 12, N-(5-(2-chloro-5-(thiazol-2-yloxy)phenyl)pyridin-2-yl)-2,6-difluorobenzamide] showed an IC50 in assay [1] (given as activity class) of less than 50 nM. The inhibition at 0.5 µM at CRACM1/STIM1-CHOK1 lay within 70 to 100%.

As for `Cc1ccc(-c2nc(-c3cccnc3)cs2)cc1-c1cnc(NC(=O)c2c(F)cccc2F)cn1` [Compound 20, 2,6-difluoro-N-(5-(2-methyl-5-(4-(pyridin-3-yl)thiazol-2-yl)phenyl)pyrazin-2-yl)benzamide], the IC50 in assay [1] (given as activity class) was less than 50 nM. Besides, the inhibition at 0.5 µM against CRACM1/STIM1-CHOK1 fell in the range of 70 to 100%.

Compound `Cc1ccc(Oc2ccncc2)cc1-c1ccc(NC(=O)c2cccc(F)c2C)nc1` [Compound 40, 3-fluoro-2-methyl-N-(5-(2-methyl-5-(pyridin-4-yloxy)phenyl)pyridin-2-yl)benzamide] registered an IC50 in assay [1] (numeric values) of 39 nM.

Compound `Cc1ccc(Oc2ccccn2)cc1-c1cnc(NC(=O)c2c(F)cccc2F)cn1` [Compound 32, 2,6-difluoro-N-(5-(2-methyl-5-(pyridin-2-yloxy)phenyl)pyrazin-2-yl)benzamide] showed an IC50 in assay [1] (numeric values) of 27 nM.
